experiment: Surface activity by captive bubble surfactometry (quasi-static cycling); type: physicochemical; settings: FIG. 2; B-YL, B-LYL, B-AYL at 3% in 5:3:2 (wt:wt:wt) DPPC:POPC:POPG; S-MB, S-MB-DATK, MB-DATK added for comparison
Experimental: In this example, surface activity of the various peptides disclosed in the present disclosure were measured in mixtures of peptides and lipids using captive bubble surfactometry.
This example used peptide concentrations of 2-4% and a lipid mixture consisting of 5:3:2 (wt:wt:wt) DPPC:POPC:POPG. Lipids only were used a negative control and the clinical surfactant Infasurf™ as a positive control.
Low surface tension equals high surface activity.
Minimum tension values during the first 10 cycles of quasi-static cycling on the captive bubble surfactometer are compared with those of lipids only.
FIG. 2 compares 3% of B-YL (SEQ ID NO: 27), B-LYL (SEQ ID NO: 28) and B-AYL (SEQ ID NO: 29) in 5:3:2 (wt:wt:wt) DPPC:POPC:POPG with lipids only (negative control) and the clinical surfactant Infasurf™ (positive control). For comparison the minimum surface tension values of Super Mini-B (S-MB), Super Mini-B-DATK (S-MB-DATK) and Mini-B-DATK (MB-DATK) have been added to the figure.

Row | Sequence | Surface activity (minimum surface tension) as compared to the negative control (lipids only)
1 | CWLCRALIKRIQAMIDATKRMLPQLVCRLVLRCS [Mini-B-DATK, Mini-B analog with DATK turn, added for comparison] | excellent surface activity
2 | FPIPLPYCWLCRALIKRIQAMIDATKRMLPQLVCRLVLRCS [Super Mini-B-DATK, Super Mini-B analog with DATK turn, added for comparison] | excellent surface activity
3 | FPIPLPYCWLCRALIKRIQAMIPKGGRMLPQLVCRLVLRCS [Super Mini-B] | excellent surface activity
4 | FPIPLPYLWLYRALIKRIQALIPKGGRLLPQLVYRLVLRLS [B-LYL] | excellent surface activity
5 | FPIPLPYYWLYRALIKRIQALIPKGGRLLPQLVYRLVLRYS [B-YL] | excellent surface activity

Source: US10717777B2, “Synthetic lung surfactant with enhanced stability and effectiveness” (The Lundquist Institute for Biomedical Innovation at …, priority 2015, dated 2020)
